Laboratory results as given in ChEMBL document CHEMBL4732258, “Pyxinol bearing amino acid residues: Easily achievable and promising modulators of P-glycoprotein-mediated multidrug resistance” (Eur J Med Chem, 2021).
Active and inactive are the calls of the source. No cut-off for these calls is given here.

Assays:
[1] = system: KBV; assay: Reversal of Pgp-mediated paclitaxel resistance in human KBV cells assessed as cell viability at 10 uM in presence of paclitaxel incubated for 72 hrs by MTT assay; type: cell-based
[2] = system: KBV; assay: Reversal of Pgp-mediated multidrug resistance in human KBV cells assessed as fold change in paclitaxel IC50 at 10 uM after 72 hrs in presence of paclitaxel by MTT assay relative to control; type: cell-based
[3] = system: KBV; assay: Reversal of Pgp-mediated multidrug resistance in human KBV cells assessed as fold change in vincristine IC50 at 10 uM after 72 hrs in presence of vincristine by MTT assay relative to control; type: cell-based
[4] = biological target: T1, Broad substrate specificity ATP-binding cassette transporter ABCG2 (Homo sapiens, UniProt Q9UNQ0); assay: Reversal of BCRP-mediated multidrug resistance in human KBV cells assessed as fold change in mitoxantrone IC50 at 10 uM after 72 hrs in presence of mitoxantrone by MTT assay; type: cell-based
T1 sequence (Q9UNQ0 whole entry): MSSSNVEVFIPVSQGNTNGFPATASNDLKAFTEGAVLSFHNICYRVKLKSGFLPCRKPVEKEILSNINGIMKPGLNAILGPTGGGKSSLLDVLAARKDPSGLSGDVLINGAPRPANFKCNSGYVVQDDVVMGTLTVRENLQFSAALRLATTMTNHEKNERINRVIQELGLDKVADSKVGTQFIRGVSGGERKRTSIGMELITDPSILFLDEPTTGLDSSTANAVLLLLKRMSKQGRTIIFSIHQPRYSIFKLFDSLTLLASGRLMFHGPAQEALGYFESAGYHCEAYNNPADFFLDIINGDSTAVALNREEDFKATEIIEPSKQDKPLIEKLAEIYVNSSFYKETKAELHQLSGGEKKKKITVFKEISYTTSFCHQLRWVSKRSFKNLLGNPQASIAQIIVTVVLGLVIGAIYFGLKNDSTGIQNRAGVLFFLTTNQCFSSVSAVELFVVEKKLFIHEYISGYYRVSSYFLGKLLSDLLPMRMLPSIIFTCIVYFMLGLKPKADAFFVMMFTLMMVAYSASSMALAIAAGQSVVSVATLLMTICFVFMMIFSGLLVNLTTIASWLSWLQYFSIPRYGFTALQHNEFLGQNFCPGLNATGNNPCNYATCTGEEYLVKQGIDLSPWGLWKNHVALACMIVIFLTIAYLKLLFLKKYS

[5] = species: Homo sapiens; assay: Modulation of Pgp-ATPase activity (unknown origin) assessed as fold increase in ATP consumption at 0.5 mM preincubated for 5 mins followed by Mg-ATP addition and measured after 45 mins by microplate reader analysis; details: filed as modulator, time 50.0 min
[6] = Induction of cell cycle arrest in human KBV cells assessed as accumulation at sub-G1 phase at 10 uM after 24 hrs by PI/RNaseA staining based flow cytometric analysis (reference value: 4.26 +/- 0.35%); type: functional
[7] = Induction of cell cycle arrest in human KBV cells assessed as accumulation at G1/G0 phase at 10 uM after 24 hrs by PI/RNaseA staining based flow cytometric analysis (reference value: 49.09 +/- 0.35%); type: functional
[8] = Induction of cell cycle arrest in human KBV cells assessed as accumulation at S phase at 10 uM after 24 hrs by PI/RNaseA staining based flow cytometric analysis (reference value: 11.32 +/- 0.04%); type: functional
[9] = Induction of cell cycle arrest in human KBV cells assessed as accumulation at G2/M phase at 10 uM after 24 hrs by PI/RNaseA staining based flow cytometric analysis (reference value: 33.81 +/- 0.57%); type: functional
[10] = Induction of cell cycle arrest in human KBV cells assessed as accumulation at sub-G1 phase at 10 uM after 24 hrs in presence of 0.1 uM paclitaxel by PI/RNaseA staining based flow cytometric analysis (reference value: 5.83 +/- 0.31%); type: functional
[11] = Induction of cell cycle arrest in human KBV cells assessed as accumulation at G1/G0 phase at 10 uM after 24 hrs in presence of 0.1 uM paclitaxel by PI/RNaseA staining based flow cytometric analysis (reference value: 50.74 +/- 0.07%); type: functional
[12] = Induction of cell cycle arrest in human KBV cells assessed as accumulation at S phase at 10 uM after 24 hrs in presence of 0.1 uM paclitaxel by PI/RNaseA staining based flow cytometric analysis (reference value: 13.06 +/- 0.39%); type: functional
[13] = Induction of cell cycle arrest in human KBV cells assessed as accumulation at G2/M phase at 10 uM after 24 hrs in presence of 0.1 uM paclitaxel by PI/RNaseA staining based flow cytometric analysis (reference value: 28.03 +/- 0.95%); type: functional
[14] = Cytotoxicity against human KBV cells assessed as cell viability at 10 uM incubated for 72 hrs by MTT assay; type: cell-based; details: read-out: Activity
[15] = system: KBV; assay: Reversal of Pgp-mediated paclitaxel resistance in human KBV cells assessed as cell viability at 5 uM in presence of paclitaxel incubated for 72 hrs by MTT assay; type: cell-based
[16] = system: KBV; assay: Reversal of Pgp-mediated multidrug resistance in human KBV cells assessed as fold change in paclitaxel IC50 at 5 uM after 72 hrs in presence of paclitaxel by MTT assay relative to control; type: cell-based
[17] = system: KBV; assay: Reversal of Pgp-mediated multidrug resistance in human KBV cells assessed as fold change in vincristine IC50 at 5 uM after 72 hrs in presence of vincristine by MTT assay relative to control; type: cell-based
[18] = biological target: T1, Broad substrate specificity ATP-binding cassette transporter ABCG2; assay: Reversal of BCRP-mediated multidrug resistance in human KBV cells assessed as fold change in mitoxantrone IC50 at 5 uM after 72 hrs in presence of mitoxantrone by MTT assay; type: cell-based
[19] = system: KBV; assay: Reversal of P-gp mediated drug efflux in human KBV cells assessed as increase in intracellular Rhodamine123 accumulation preincubated for 2 hrs followed by Rh123 addition measured after 0.5 hr by flow cytometry analysis; type: cell-based; details: filed as modulator, dose 2-10 µM, time 2.5 hrs
[20] = system: KBV; assay: Effect on Pgp protein expression in human KBV cells at 5 to 10 uM after 24 hrs by Western blot analysis; type: functional, cell-based; details: dose 5-10 µM
[21] = Induction of cell cycle arrest in human KBV cells assessed as accumulation at sub-G1 phase at 5 uM after 24 hrs in presence of 0.1 uM paclitaxel by PI/RNaseA staining based flow cytometric analysis (reference value: 5.83 +/- 0.31%); type: functional
[22] = Induction of cell cycle arrest in human KBV cells assessed as accumulation at G1/G0 phase at 5 uM after 24 hrs in presence of 0.1 uM paclitaxel by PI/RNaseA staining based flow cytometric analysis (reference value: 50.74 +/- 0.07%); type: functional
[23] = Induction of cell cycle arrest in human KBV cells assessed as accumulation at S phase at 5 uM after 24 hrs in presence of 0.1 uM paclitaxel by PI/RNaseA staining based flow cytometric analysis (reference value: 13.06 +/- 0.39%); type: functional
[24] = Induction of cell cycle arrest in human KBV cells assessed as accumulation at G2/M phase at 5 uM after 24 hrs in presence of 0.1 uM paclitaxel by PI/RNaseA staining based flow cytometric analysis (reference value: 28.03 +/- 0.95%); type: functional

`COc1ccc(CCN(C)CCCC(C#N)(c2ccc(OC)c(OC)c2)C(C)C)cc1OC` (configuration not stated) showed an Activity ([1]; filed as modulator) of 28%, a fold change (FC) [2] of 40 and a fold change (FC) [3] of 16. For the same molecule, the “fold change (FC)” value [4] was 1, the fold change (FC) [5] was 5.6 and the Activity [6] was 4.69%. For the same molecule, the Activity [7] was 51.35%, the Activity [8] was 11.44% and the Activity [9] was 31.36%. For the same molecule, the Activity [10] was 18.47%, the Activity [11] was 11.1% and the Activity [12] was 11.57%. The Activity [13] was 57.42%.

With `CSCC[C@H](NC(=O)OC(C)(C)C)C(=O)O[C@H]1CC[C@]2(C)[C@H]3C[C@@H](O)[C@@H]4[C@@H]([C@]5(C)CC[C@@H](C(C)(C)O)O5)CC[C@@]4(C)[C@]3(C)CC[C@H]2C1(C)C` the viability at 72 h, 10 µM [14] was 88%, the Activity ([1]; filed as modulator) was 16% and the Activity ([15]; filed as modulator) was 19%. The fold change (FC) [16] was 18, the fold change (FC) [2] was 51 and the fold change (FC) [17] was 5. For the same molecule, the fold change (FC) [3] was 14, the “fold change (FC)” value [18] was 0.8 and the “fold change (FC)” value [4] was 1.2.

For `CSCC[C@H](NC(=O)OC(C)(C)C)C(=O)O[C@H]1CC[C@]2(C)[C@H]3C[C@@H](O)[C@@H]4[C@@H]([C@]5(C)CC[C@H](C(C)(C)O)O5)CC[C@@]4(C)[C@]3(C)CC[C@H]2C1(C)C`, the viability at 72 h, 10 µM [14] was 120%, the Activity ([1]; filed as modulator) was 21% and the Activity ([15]; filed as modulator) was 26%. It also gave a fold change (FC) [16] of 25, a fold change (FC) [2] of 59 and a fold change (FC) [17] of 3. The fold change (FC) [3] was 8, the Activity [19] was “Dose-dependent effect” and the “fold change (FC)” value [18] was 1.4. For the same molecule, the “fold change (FC)” value [4] was 1.6, the fold change (FC) [5] was 6 and the Activity [20] was “inactive”. For the same molecule, the Activity [6] was 3.31%, the Activity [7] was 42.81% and the Activity [8] was 13.67%. The Activity [9] was 38.79%, the Activity [21] was 19.8% and the Activity [22] was 14%. The Activity [23] was 12.94%, the Activity [24] was 51.66% and the Activity [10] was 22.66%. It also gave an Activity [11] of 13.75%, an Activity [12] of 11.1% and an Activity [13] of 51.06%.

In the case of `CSCC[C@H](N)C(=O)O[C@H]1CC[C@]2(C)[C@H]3C[C@@H](O)[C@@H]4[C@@H]([C@]5(C)CC[C@H](C(C)(C)O)O5)CC[C@@]4(C)[C@]3(C)CC[C@H]2C1(C)C`, the viability at 72 h, 10 µM [14] is reported as 90%, the Activity ([1]; filed as modulator) is reported as 23% and the Activity ([15]; filed as modulator) is reported as 26%. It also gave a fold change (FC) [16] of 17 and a fold change (FC) [2] of 34.

Molecule `CC(C)(O)[C@@H]1CC[C@@](C)([C@H]2CC[C@]3(C)[C@@H]2[C@H](O)C[C@@H]2[C@@]4(C)CC[C@H](OC(=O)[C@@H](N)Cc5c[nH]c6ccccc56)C(C)(C)[C@@H]4CC[C@]23C)O1` has a viability at 72 h, 10 µM [14] of 52%, an Activity ([1]; filed as modulator) of 27% and an Activity ([15]; filed as modulator) of 30%.

`CC(C)(O)[C@H]1CC[C@@](C)([C@H]2CC[C@]3(C)[C@@H]2[C@H](O)C[C@@H]2[C@@]4(C)CC[C@H](OC(=O)[C@@H](N)CC(=O)O)C(C)(C)[C@@H]4CC[C@]23C)O1` showed a viability at 72 h, 10 µM [14] of 95%, an Activity [1] of 61% and an Activity [15] of 106%.
